The values that follow come from patent publication US20250034167A1, “HETEROCYCLIC COMPOUNDS AND METHODS OF USE” (AMGEN INC., priority 2021, published 2025).

In assay [1] the test system is Phosphorylation of ERK1/2 in AsPC-1 cells. Put plainly: Phospho-ERK1/2 MSD Assay. The assay is classed as cell-based. The following applies: Homo sapiens, ASPC1, 2 h, read-out: 2 h p-ERK (AsPC-1 cells), IC50, AsPC-1 cells, 2 h compound treatment. The protocol: Sixteen hours prior to compound treatment, AsPC-1 cells were seeded in 96-well cell culture plates at a density of 25,000 cells/well and incubated at 37° C., 5% CO2. A compound dose-response titration was diluted in growth media, added to appropriate wells of a cell culture plate, and then incubated at 37° C., 5% CO2 for 2 hours.

In assay [2] the target is His-tagged KRAS G12D protein (Homo sapiens, UniProt P01116, G12D). Put plainly: biochemical.
Chain of His-tagged KRAS G12D protein (P01116 1-188 isoform P01116-2 G12D): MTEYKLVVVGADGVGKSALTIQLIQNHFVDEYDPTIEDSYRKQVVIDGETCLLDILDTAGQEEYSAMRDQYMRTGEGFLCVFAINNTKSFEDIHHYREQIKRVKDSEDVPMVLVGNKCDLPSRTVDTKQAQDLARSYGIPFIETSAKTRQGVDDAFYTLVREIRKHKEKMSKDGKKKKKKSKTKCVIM
Protocol: The plate was incubated for 30 minutes at room temperature. Biotinylated KRPep-2d substrate (Amgen) was diluted to nM in Assay Buffer and 2 μL was added to all wells and incubated for 1 hour at room temperature. Detection Reagent (0.4 nM LANCE Eu-W1024 Anti-6×His (Perkin Elmer AD0401), 5 nM streptavidin-d2 (Cisbio 610SADLA)) was prepared in Assay Buffer, then 4 µL was added to the plate and incubated for 1 hour at room temperature.

Where only a bound is given, the exact number is not on record here.

As for `CCc1c(F)ccc2cc(O)cc(-c3ncc4c(N5CCCC(O)(CC)C5)nc(OC[C@@]56CCCN5C[C@H](F)C6)nc4c3F)c12` (stereo partly drawn) [Example 65, 3-Ethyl-1-(7-(8-ethyl-7-fluoro-3-hydroxynaphthalen-1-yl)-8-fluoro-2-(((2R,7aS)-2-fluorotetrahydro-1H-pyrrolizin-7a(5H)-yl)methoxy)pyrido[4,3-d]pyrimidin-4-yl)piperidin-3-ol], the IC50 was 153 nM in assay [1] and 3 nM in assay [2].
For `CCc1c(F)ccc2cc(O)cc(-c3ncc4c(N5CCC[C@](C)(CO)C5)nc(OC[C@@]56CCCN5C[C@H](F)C6)nc4c3F)c12` [Example 66, 5-Ethyl-6-fluoro-4-(8-fluoro-2-(((2R,7aS)-2-fluorotetrahydro-1H-pyrrolizin-7a(5H)-yl)methoxy)-4-((S)-3-(hydroxymethyl)-3-methylpiperidin-1-yl)pyrido[4,3-d]pyrimidin-7-yl)naphthalen-2-ol], in that order: 754 nM and 18 nM.
As for `CCc1c(F)ccc2cc(O)cc(-c3ncc4c(N5CCC[C@@](C)(CO)C5)nc(OC[C@@]56CCCN5C[C@H](F)C6)nc4c3F)c12` [Example 67, 5-Ethyl-6-fluoro-4-(8-fluoro-2-(((2R,7aS)-2-fluorotetrahydro-1H-pyrrolizin-7a(5H)-yl)methoxy)-4-((R)-3-(hydroxymethyl)-3-methylpiperidin-1-yl)pyrido[4,3-d]pyrimidin-7-yl)naphthalen-2-ol], the figures for the 50% inhibitory concentration (IC50) in assay [1] and in assay [2] were 816 nM and 19 nM, respectively.
For `CCc1c(F)ccc2cc(O)cc(-c3ncc4c(N5CCCC(C)(C(N)=O)C5)nc(OC[C@@]56CCCN5C[C@H](F)C6)nc4c3F)c12` (stereo partly drawn) [Example 68, 1-(7-(8-Ethyl-7-fluoro-3-hydroxynaphthalen-1-yl)-8-fluoro-2-(((2R,7aS)-2-fluorotetrahydro-1H-pyrrolizin-7a(5H)-yl)methoxy)pyrido[4,3-d]pyrimidin-4-yl)-3-methylpiperidine-3-carboxamide], in that order: 1690 nM and 8 nM.
For `CCc1c(F)ccc2cc(O)cc(-c3ncc4c(N5CC6CC(=O)C5C6)nc(OC[C@@]56CCCN5C[C@H](F)C6)nc4c3F)c12` (stereo partly drawn) [Example 72, 2-(7-(8-Ethyl-7-fluoro-3-hydroxynaphthalen-1-yl)-8-fluoro-2-(((2R,7aS)-2-fluorotetrahydro-1H-pyrrolizin-7a(5H)-yl)methoxy)pyrido[4,3-d]pyrimidin-4-yl)-2-azabicyclo[2.2.1]heptan-6-one], in that order: 3240 nM and 34 nM.
Take `CCc1c(F)ccc2cc(O)cc(-c3ncc4c(N5CCCC(S(=O)(=O)NC)C5)nc(OC[C@@]56CCCN5C[C@H](F)C6)nc4c3F)c12` (stereo partly drawn) [Example 79, 1-(7-(8-Ethyl-7-fluoro-3-hydroxynaphthalen-1-yl)-8-fluoro-2-(((2R,7aS)-2-fluorotetrahydro-1H-pyrrolizin-7a(5H)-yl)methoxy)pyrido[4,3-d]pyrimidin-4-yl)-N-methylpiperidine-3-sulfonamide]: the IC50 came out at 2190 nM in assay [1] and 5 nM in assay [2].
The corresponding values for `CCc1c(F)ccc2cc(O)cc(-c3ncc4c(N5CCCCC[C@H]5C)nc(OC[C@@]56CCCN5C[C@H](F)C6)nc4c3F)c12` [Example 80, 5-Ethyl-6-fluoro-4-(8-fluoro-2-(((2R,7aS)-2-fluorotetrahydro-1H-pyrrolizin-7a(5H)-yl)methoxy)-4-((R)-2-methylazepan-1-yl)pyrido[4,3-d]pyrimidin-7-yl)naphthalen-2-ol] are 253 nM and 2 nM.
For `CCc1c(F)ccc2cc(O)cc(-c3ncc4c(N5CCCCC[C@@H]5C)nc(OC[C@@]56CCCN5C[C@H](F)C6)nc4c3F)c12` [Example 81, 5-Ethyl-6-fluoro-4-(8-fluoro-2-(((2R,7aS)-2-fluorotetrahydro-1H-pyrrolizin-7a(5H)-yl)methoxy)-4-((S)-2-methylazepan-1-yl)pyrido[4,3-d]pyrimidin-7-yl)naphthalen-2-ol], in that order: 1160 nM and 19 nM.
The corresponding values for `CCc1c(F)ccc2cc(O)cc(-c3ncc4c(N5CC(CS(N)(=O)=O)C5)nc(OC[C@@]56CCCN5C[C@H](F)C6)nc4c3F)c12` [Example 82, (1-(7-(8-Ethyl-7-fluoro-3-hydroxynaphthalen-1-yl)-8-fluoro-2-(((2R,7aS)-2-fluorotetrahydro-1H-pyrrolizin-7a(5H)-yl)methoxy)pyrido[4,3-d]pyrimidin-4-yl)azetidin-3-yl)methanesulfonamide] are greater than 10000 nM and 33 nM.
In the case of `CCc1c(F)ccc2cc(O)cc(-c3ncc4c(N5CC(O)(C(N)=O)C5)nc(OC[C@@]56CCCN5C[C@H](F)C6)nc4c3F)c12` [Example 83, 1-(7-(8-Ethyl-7-fluoro-3-hydroxynaphthalen-1-yl)-8-fluoro-2-(((2R,7aS)-2-fluorotetrahydro-1H-pyrrolizin-7a(5H)-yl)methoxy)pyrido[4,3-d]pyrimidin-4-yl)-3-hydroxyazetidine-3-carboxamide], the IC50 in assay [1] is greater than 10000 nM; in assay [2] it was 2 nM.
The corresponding values for `CCc1c(F)ccc2cc(O)cc(-c3ncc4c(N5CCCC(S(C)(=O)=O)C5)nc(OC[C@@]56CCCN5C[C@H](F)C6)nc4c3F)c12` (stereo partly drawn) [Example 84, 5-Ethyl-6-fluoro-4-(8-fluoro-2-(((2R,7aS)-2-fluorotetrahydro-1H-pyrrolizin-7a(5H)-yl)methoxy)-4-(3-(methylsulfonyl)piperidin-1-yl)pyrido[4,3-d]pyrimidin-7-yl)naphthalen-2-ol] are 1290 nM and 5 nM.
For `CCc1c(F)ccc2cc(O)cc(-c3ncc4c(N5CCC(S(N)(=O)=O)CC5)nc(OC[C@@]56CCCN5C[C@H](F)C6)nc4c3F)c12` [Example 85, 1-(7-(8-Ethyl-7-fluoro-3-hydroxynaphthalen-1-yl)-8-fluoro-2-(((2R,7aS)-2-fluorotetrahydro-1H-pyrrolizin-7a(5H)-yl)methoxy)pyrido[4,3-d]pyrimidin-4-yl)piperidine-4-sulfonamide], in that order: greater than 10000 nM and 37 nM.
The corresponding values for `CCc1c(F)ccc2cc(O)cc(-c3ncc4c(N5CCC(S(N)(=O)=O)C5)nc(OC[C@@]56CCCN5C[C@H](F)C6)nc4c3F)c12` (stereo partly drawn) [Example 86, 1-(7-(8-Ethyl-7-fluoro-3-hydroxynaphthalen-1-yl)-8-fluoro-2-(((2R,7aS)-2-fluorotetrahydro-1H-pyrrolizin-7a(5H)-yl)methoxy)pyrido[4,3-d]pyrimidin-4-yl)pyrrolidine-3-sulfonamide] are greater than 10000 nM and 64 nM.
For the compound `CCc1c(F)ccc2cc(O)cc(-c3ncc4c(N5CC(S(N)(=O)=O)C5)nc(OC[C@@]56CCCN5C[C@H](F)C6)nc4c3F)c12` [Example 87, 1-(7-(8-Ethyl-7-fluoro-3-hydroxynaphthalen-1-yl)-8-fluoro-2-(((2R,7aS)-2-fluorotetrahydro-1H-pyrrolizin-7a(5H)-yl)methoxy)pyrido[4,3-d]pyrimidin-4-yl)azetidine-3-sulfonamide], the values for the IC50 in assay [1] and in assay [2] were greater than 10000 nM and 63 nM, respectively.
For `CCc1c(F)ccc2cc(O)cc(-c3ncc4c(N5CC(C(N)=O)C5)nc(OC[C@@]56CCCN5C[C@H](F)C6)nc4c3F)c12` [Example 88, 1-(7-(8-Ethyl-7-fluoro-3-hydroxynaphthalen-1-yl)-8-fluoro-2-(((2R,7aS)-2-fluorotetrahydro-1H-pyrrolizin-7a(5H)-yl)methoxy)pyrido[4,3-d]pyrimidin-4-yl)azetidine-3-carboxamide], in that order: greater than 10000 nM and 6 nM.

By IC50 is commonly meant the concentration that gives 50% inhibition.
